# Results from paper PMC10994248 (The Oncologist, 2024).
# Assay: Phase I safety and tolerability (TEAEs, DLTs, MTD, DRDE) in patients with advanced solid tumors
# Assay type: in vivo, human
# Conditions: for DLT: Hypertension / DLT: Palmar-plantar erythrodysesthesia syndrome / DLT: Skin and subcutaneous tissue disorders / DLT: Vascular disorders / Subjects who had a dose-limiting toxicity: dose-determining set
# Protocol: This 2-part, open-label, phase I study was conducted at the MD Anderson Cancer Center in Texas, USA and the Cancer Hospital Chinese Academy of Medical Sciences in Beijing, China. […] This was followed by a dose-expansion phase, the primary objective of which was to confirm the safety and tolerability of tinengotinib at the DRDE. Secondary objectives were to characterize the pharmacokinetics and preliminary efficacy of tinengotinib.
# Dose escalation was guided by an adaptive Bayesian logistic regression model using the Escalation with Overdose Control principle.[6],[7] Study data (including DLTs, grade 2 adverse events during cycle 1, and pharmacokinetic data) were reviewed by the sponsor and trial investigators at each dose level and used to guide dose-escalation decisions. MTD was based on the Bayesian model, but with consideration given to available safety and tolerability data. DRDE was based on an evaluation of all available data (safety, clinical activity, and pharmacokinetics).
# After determination of the DRDE, the dose-expansion phase was opened to further characterize safety and pharmacokinetics, and to assess preliminary efficacy.
# Routine safety assessments of adverse events, laboratory tests (hematology, coagulation, biochemistry, and urinalysis), vital signs, and 12-lead electrocardiograms were performed. Adverse events were graded according to the National Cancer Institute Common Terminology Criteria for Adverse Events (CTCAE), version 5.0.
substance,measurement,setting,value
tinengotinib,DLT: Hypertension,1 mg (n=1),0 No. (%)
same,DLT: Palmar-plantar erythrodysesthesia syndrome,1 mg (n=1),0 No. (%)
same,DLT: Skin and subcutaneous tissue disorders,1 mg (n=1),0 No. (%)
same,DLT: Vascular disorders,1 mg (n=1),0 No. (%)
same,Subjects who had a dose-limiting toxicity,1 mg (n=1),0 No. (%)
same,DLT: Hypertension,3 mg (n=1),0 No. (%)
same,DLT: Palmar-plantar erythrodysesthesia syndrome,3 mg (n=1),0 No. (%)
same,DLT: Skin and subcutaneous tissue disorders,3 mg (n=1),0 No. (%)
same,DLT: Vascular disorders,3 mg (n=1),0 No. (%)
same,Subjects who had a dose-limiting toxicity,3 mg (n=1),0 No. (%)
same,DLT: Hypertension,5 mg (n=4),0 No. (%)
same,DLT: Palmar-plantar erythrodysesthesia syndrome,5 mg (n=4),0 No. (%)
same,DLT: Skin and subcutaneous tissue disorders,5 mg (n=4),0 No. (%)
same,DLT: Vascular disorders,5 mg (n=4),0 No. (%)
same,Subjects who had a dose-limiting toxicity,5 mg (n=4),0 No. (%)
same,DLT: Hypertension,8 mg (n=9),0 No. (%)
same,DLT: Palmar-plantar erythrodysesthesia syndrome,8 mg (n=9),1 (11.1) No. (%)
same,DLT: Skin and subcutaneous tissue disorders,8 mg (n=9),1 (11.1) No. (%)
same,DLT: Vascular disorders,8 mg (n=9),0 No. (%)
same,Subjects who had a dose-limiting toxicity,8 mg (n=9),1 (11.1) No. (%)
same,DLT: Hypertension,10 mg (n=3),0 No. (%)
same,DLT: Palmar-plantar erythrodysesthesia syndrome,10 mg (n=3),0 No. (%)
same,DLT: Skin and subcutaneous tissue disorders,10 mg (n=3),0 No. (%)
same,DLT: Vascular disorders,10 mg (n=3),0 No. (%)
same,Subjects who had a dose-limiting toxicity,10 mg (n=3),0 No. (%)
same,DLT: Hypertension,12 mg (n=9),0 No. (%)
same,DLT: Palmar-plantar erythrodysesthesia syndrome,12 mg (n=9),0 No. (%)
same,DLT: Skin and subcutaneous tissue disorders,12 mg (n=9),0 No. (%)
same,DLT: Vascular disorders,12 mg (n=9),0 No. (%)
same,Subjects who had a dose-limiting toxicity,12 mg (n=9),0 No. (%)
same,DLTs during the dose-expansion phase,12 mg dose,no other DLTs
same,DLT: Hypertension,15 mg (n=5),2 (40.0) No. (%)
same,DLT: Palmar-plantar erythrodysesthesia syndrome,15 mg (n=5),0 No. (%)
same,DLT: Skin and subcutaneous tissue disorders,15 mg (n=5),0 No. (%)
same,DLT: Vascular disorders,15 mg (n=5),2 (40.0) No. (%)
same,Subjects who had a dose-limiting toxicity,15 mg (n=5),2 (40.0) No. (%)
same,Dose modifications (dose adjustment or temporary interruption) because of drug-related TEAEs,48 patients,52.1%
same,Dose modifications because of drug-related hypertension,48 patients,22.9%
same,Drug-related grade 3 diarrhea,48 patients,2.1%
same,Drug-related grade 3 hypertension,48 patients,27.1%
same,Drug-related grade 3 nausea,48 patients,2.1%
same,Drug-related grade 3 palmar-plantar erythrodysesthesia syndrome,48 patients,2.1%
same,Drug-related grade 3 stomatitis,48 patients,4.2%
same,Drug-related grade 4 or 5 TEAEs,48 patients,No drug-related grade 4 or 5 TEAEs were reported
same,Patients with drug-related grade 3 TEAEs,48 patients,43.8%
same,Patients with drug-related serious adverse events,48 patients,14.6%
same,Patients with study drug-related TEAEs,"48 patients, all doses",85.4%
same,Drug-related TEAE diarrhea,"48 patients, any grade",33.3%
same,Drug-related TEAE hypertension,"48 patients, any grade",50.0%
same,Drug-related TEAE nausea,"48 patients, any grade",22.9%
same,Drug-related TEAE palmar-plantar erythrodysesthesia syndrome,"48 patients, any grade",29.2%
same,Drug-related TEAE stomatitis,"48 patients, any grade",29.2%
same,Drug-related TEAE vomiting,"48 patients, any grade",20.8%
same,Maximum tolerated dose (MTD),"Bayesian model, doses 1-15 mg once daily",not reached
same,DLT: Hypertension,Total (n=32),2 (6.3) No. (%)
same,DLT: Palmar-plantar erythrodysesthesia syndrome,Total (n=32),1 (3.1) No. (%)
same,DLT: Skin and subcutaneous tissue disorders,Total (n=32),1 (3.1) No. (%)
same,DLT: Vascular disorders,Total (n=32),2 (6.3) No. (%)
same,Subjects who had a dose-limiting toxicity,Total (n=32),3 (9.4) No. (%)
same,Risk of grade ≥3 hypertension predicted by exposure-response model,all doses,< 25%
same,Patients with AE,combined 12 mg (n=20),20 (100) n (%)
same,Patients with TEAE,combined 12 mg (n=20),20 (100) n (%)
same,Patients with TEAE leading to death,combined 12 mg (n=20),0 n (%)
same,Patients with TEAE leading to dose adjustment/temporary interruption,combined 12 mg (n=20),15 (75.0) n (%)
same,Patients with TEAE leading to study drug permanent discontinuation,combined 12 mg (n=20),3 (15.0) n (%)
same,Patients with grade ≥3 TEAE,combined 12 mg (n=20),14 (70.0) n (%)
same,Patients with study drug-related TEAE,combined 12 mg (n=20),19 (95.0) n (%)
same,Patients with study drug-related TEAE leading to dose adjustment/temporary interruption,combined 12 mg (n=20),13 (65.0) n (%)
same,Patients with study drug-related TEAE leading to study drug permanent discontinuation,combined 12 mg (n=20),1 (5.0) n (%)
same,Patients with study drug-related grade ≥3 TEAE,combined 12 mg (n=20),11 (55.0) n (%)
same,Patients with study drug-related treatment-emergent SAE,combined 12 mg (n=20),3 (15.0) n (%)
same,Patients with treatment-emergent SAE,combined 12 mg (n=20),9 (45.0) n (%)
same,Patients with AE,dose escalation 1 mg (n=1),1 (100) n (%)
same,Patients with TEAE,dose escalation 1 mg (n=1),1 (100) n (%)
same,Patients with TEAE leading to death,dose escalation 1 mg (n=1),0 n (%)
same,Patients with TEAE leading to dose adjustment/temporary interruption,dose escalation 1 mg (n=1),0 n (%)
same,Patients with TEAE leading to study drug permanent discontinuation,dose escalation 1 mg (n=1),0 n (%)
same,Patients with grade ≥3 TEAE,dose escalation 1 mg (n=1),0 n (%)
same,Patients with study drug-related TEAE,dose escalation 1 mg (n=1),0 n (%)
same,Patients with study drug-related TEAE leading to dose adjustment/temporary interruption,dose escalation 1 mg (n=1),0 n (%)
same,Patients with study drug-related TEAE leading to study drug permanent discontinuation,dose escalation 1 mg (n=1),0 n (%)
same,Patients with study drug-related grade ≥3 TEAE,dose escalation 1 mg (n=1),0 n (%)
same,Patients with study drug-related treatment-emergent SAE,dose escalation 1 mg (n=1),0 n (%)
same,Patients with treatment-emergent SAE,dose escalation 1 mg (n=1),0 n (%)
same,Patients with AE,dose escalation 3 mg (n=1),1 (100) n (%)
same,Patients with TEAE,dose escalation 3 mg (n=1),1 (100) n (%)
same,Patients with TEAE leading to death,dose escalation 3 mg (n=1),0 n (%)
same,Patients with TEAE leading to dose adjustment/temporary interruption,dose escalation 3 mg (n=1),0 n (%)
same,Patients with TEAE leading to study drug permanent discontinuation,dose escalation 3 mg (n=1),0 n (%)
same,Patients with grade ≥3 TEAE,dose escalation 3 mg (n=1),0 n (%)
same,Patients with study drug-related TEAE,dose escalation 3 mg (n=1),0 n (%)
same,Patients with study drug-related TEAE leading to dose adjustment/temporary interruption,dose escalation 3 mg (n=1),0 n (%)
same,Patients with study drug-related TEAE leading to study drug permanent discontinuation,dose escalation 3 mg (n=1),0 n (%)
same,Patients with study drug-related grade ≥3 TEAE,dose escalation 3 mg (n=1),0 n (%)
same,Patients with study drug-related treatment-emergent SAE,dose escalation 3 mg (n=1),0 n (%)
same,Patients with treatment-emergent SAE,dose escalation 3 mg (n=1),0 n (%)
same,Patients with AE,dose escalation 5 mg (n=4),4 (100) n (%)
same,Patients with TEAE,dose escalation 5 mg (n=4),4 (100) n (%)
same,Patients with TEAE leading to death,dose escalation 5 mg (n=4),0 n (%)
same,Patients with TEAE leading to dose adjustment/temporary interruption,dose escalation 5 mg (n=4),2 (50.0) n (%)
same,Patients with TEAE leading to study drug permanent discontinuation,dose escalation 5 mg (n=4),0 n (%)
same,Patients with grade ≥3 TEAE,dose escalation 5 mg (n=4),1 (25.0) n (%)
same,Patients with study drug-related TEAE,dose escalation 5 mg (n=4),3 (75.0) n (%)
same,Patients with study drug-related TEAE leading to dose adjustment/temporary interruption,dose escalation 5 mg (n=4),1 (25.0) n (%)
same,Patients with study drug-related TEAE leading to study drug permanent discontinuation,dose escalation 5 mg (n=4),0 n (%)
same,Patients with study drug-related grade ≥3 TEAE,dose escalation 5 mg (n=4),1 (25.0) n (%)
same,Patients with study drug-related treatment-emergent SAE,dose escalation 5 mg (n=4),0 n (%)
same,Patients with treatment-emergent SAE,dose escalation 5 mg (n=4),0 n (%)
same,Patients with AE,dose escalation 8 mg (n=10),9 (90.0) n (%)
same,Patients with TEAE,dose escalation 8 mg (n=10),9 (90.0) n (%)
same,Patients with TEAE leading to death,dose escalation 8 mg (n=10),0 n (%)
same,Patients with TEAE leading to dose adjustment/temporary interruption,dose escalation 8 mg (n=10),5 (50.0) n (%)
same,Patients with TEAE leading to study drug permanent discontinuation,dose escalation 8 mg (n=10),2 (20.0) n (%)
same,Patients with grade ≥3 TEAE,dose escalation 8 mg (n=10),6 (60.0) n (%)
same,Patients with study drug-related TEAE,dose escalation 8 mg (n=10),8 (80.0) n (%)
same,Patients with study drug-related TEAE leading to dose adjustment/temporary interruption,dose escalation 8 mg (n=10),5 (50.0) n (%)
same,Patients with study drug-related TEAE leading to study drug permanent discontinuation,dose escalation 8 mg (n=10),1 (10.0) n (%)
same,Patients with study drug-related grade ≥3 TEAE,dose escalation 8 mg (n=10),4 (40.0) n (%)
same,Patients with study drug-related treatment-emergent SAE,dose escalation 8 mg (n=10),3 (30.0) n (%)
same,Patients with treatment-emergent SAE,dose escalation 8 mg (n=10),5 (50.0) n (%)
same,Patients with AE,dose escalation 10 mg (n=6),6 (100) n (%)
same,Patients with TEAE,dose escalation 10 mg (n=6),6 (100) n (%)
same,Patients with TEAE leading to death,dose escalation 10 mg (n=6),0 n (%)
same,Patients with TEAE leading to dose adjustment/temporary interruption,dose escalation 10 mg (n=6),5 (83.3) n (%)
same,Patients with TEAE leading to study drug permanent discontinuation,dose escalation 10 mg (n=6),4 (66.7) n (%)
same,Patients with grade ≥3 TEAE,dose escalation 10 mg (n=6),5 (83.3) n (%)
same,Patients with study drug-related TEAE,dose escalation 10 mg (n=6),6 (100) n (%)
same,Patients with study drug-related TEAE leading to dose adjustment/temporary interruption,dose escalation 10 mg (n=6),3 (50.0) n (%)
same,Patients with study drug-related TEAE leading to study drug permanent discontinuation,dose escalation 10 mg (n=6),4 (66.7) n (%)
same,Patients with study drug-related grade ≥3 TEAE,dose escalation 10 mg (n=6),2 (33.3) n (%)
same,Patients with study drug-related treatment-emergent SAE,dose escalation 10 mg (n=6),1 (16.7) n (%)
same,Patients with treatment-emergent SAE,dose escalation 10 mg (n=6),4 (66.7) n (%)
same,Patients with AE,dose escalation 12 mg (n=12),12 (100) n (%)
same,Patients with TEAE,dose escalation 12 mg (n=12),12 (100) n (%)
same,Patients with TEAE leading to death,dose escalation 12 mg (n=12),0 n (%)
same,Patients with TEAE leading to dose adjustment/temporary interruption,dose escalation 12 mg (n=12),8 (66.7) n (%)
same,Patients with TEAE leading to study drug permanent discontinuation,dose escalation 12 mg (n=12),3 (25.0) n (%)
same,Patients with grade ≥3 TEAE,dose escalation 12 mg (n=12),9 (75.0) n (%)
same,Patients with study drug-related TEAE,dose escalation 12 mg (n=12),11 (91.7) n (%)
same,Patients with study drug-related TEAE leading to dose adjustment/temporary interruption,dose escalation 12 mg (n=12),6 (50.0) n (%)
